Our source for the Activity values is ChEMBL document CHEMBL4387728, “Synthetic glycopeptides reveal specific binding pattern and conformational change at O-mannosylated position of α-dystroglycan by POMGnT1 catalyzed GlcNAc modification” (Bioorg Med Chem, 2019).

The species entered for assay [1] is Homo sapiens. Put plainly: Binding affinity to biotin-labeled human recombinant laminin-2 at 10 ug/ml in pH 7.4 Tris buffer by fluorescence microarray method.
The subject of a further assay is Maackia amurensis. Put plainly: Binding affinity to biotin-labeled Maackia amurensis agglutinin in pH 7.4 Tris buffer by fluorescence microarray method.
For the next assay, the system named is Triticum aestivum. Kind of assay: Binding affinity to biotin-labeled Wheat germ agglutinin in pH 7.4 Tris buffer by fluorescence microarray method.
Assay [2] has as its target Lactotransferrin (Homo sapiens) (UniProt P02788). Put plainly: Binding affinity to biotin-labeled lactoferrin (unknown origin) at 10 ug/ml in pH 5.6 MES buffer by fluorescence microarray method.
Assay [3] concerns the target Laminin subunit alpha-1 (Homo sapiens) (UniProt P25391). Kind of assay: Binding affinity to biotin-labeled human recombinant laminin-1 at 10 ug/ml in pH 5.6 MES buffer by fluorescence microarray method.
A further assay relates to Datura stramonium. Kind of assay: Binding affinity to biotin-labeled Datura stramonium agglutinin in pH 7.4 Tris buffer by fluorescence microarray method.
The species entered for assay [4] is Homo sapiens. Kind of assay: Binding affinity to biotin-labeled human recombinant laminin-2 at 10 ug/ml in 5.6 MES buffer by fluorescence microarray method.
The subject of assay [5] is Sambucus racemosa subsp. sieboldiana. Kind of assay: Binding affinity to biotin-labeled Sambucus sieboldiana agglutinin in pH 7.4 Tris buffer by fluorescence microarray method.
Assay [6] concerns the target Laminin subunit alpha-1 (Homo sapiens) (UniProt P25391). Put plainly: Binding affinity to biotin-labeled human recombinant laminin-1 at 10 ug/ml in pH 7.4 Tris buffer by fluorescence microarray method.
For assay [7], the target named is Lactotransferrin (Homo sapiens) (UniProt P02788). Kind of assay: Binding affinity to biotin-labeled lactoferrin (unknown origin) at 10 ug/ml in pH 7.4 Tris buffer by fluorescence microarray method.
Chain of Lactotransferrin (Homo sapiens) (P02788 whole entry): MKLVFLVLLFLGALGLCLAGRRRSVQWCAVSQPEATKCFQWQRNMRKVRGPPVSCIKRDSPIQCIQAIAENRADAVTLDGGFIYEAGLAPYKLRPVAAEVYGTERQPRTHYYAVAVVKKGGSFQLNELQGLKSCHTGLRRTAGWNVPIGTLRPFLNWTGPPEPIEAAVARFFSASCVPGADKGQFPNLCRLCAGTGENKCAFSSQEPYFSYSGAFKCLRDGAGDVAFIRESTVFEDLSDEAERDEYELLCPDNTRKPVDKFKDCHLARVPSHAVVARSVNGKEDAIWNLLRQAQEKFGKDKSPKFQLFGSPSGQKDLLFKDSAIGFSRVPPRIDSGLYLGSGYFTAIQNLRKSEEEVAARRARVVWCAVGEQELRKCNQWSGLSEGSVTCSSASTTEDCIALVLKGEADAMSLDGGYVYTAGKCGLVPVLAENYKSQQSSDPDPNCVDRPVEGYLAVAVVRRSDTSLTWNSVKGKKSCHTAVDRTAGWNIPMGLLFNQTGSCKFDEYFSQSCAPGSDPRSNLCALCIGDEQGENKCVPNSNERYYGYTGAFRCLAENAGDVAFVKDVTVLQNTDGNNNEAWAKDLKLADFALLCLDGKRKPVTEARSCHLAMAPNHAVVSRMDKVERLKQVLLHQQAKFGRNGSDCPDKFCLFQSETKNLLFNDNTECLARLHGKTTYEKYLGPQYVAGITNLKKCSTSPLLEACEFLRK
Assay [8] in a line: Binding affinity to biotin-labeled Agaricus bisporus agglutinin in pH 7.4 Tris buffer by fluorescence microarray method.
Another assay deals with Arachis hypogaea. Put plainly: Binding affinity to biotin-labeled Arachis hypogaea agglutinin in pH 7.4 Tris buffer by fluorescence microarray method.
The subject of a further assay is Erythrina crista-galli. Kind of assay: Binding affinity to biotin-labeled Erythrina crista-galli agglutinin in pH 7.4 Tris buffer by fluorescence microarray method.
Another assay has as its system Canavalia ensiformis. Kind of assay: Binding affinity to biotin-labeled Canavalia ensiformis agglutinin in pH 7.4 Tris buffer by fluorescence microarray method.

The structures appear in SMILES notation. The source made the active and inactive calls. The rule behind the calls is not given here. Peptide text beside a SMILES is read from it. * marks the point of attachment. X1 = CC(=O)N[C@H]1[C@H](O[C@H]2[C@@H](O)[C@H](O)[C@@H](CO)O[C@@H]2*)O[C@H](CO)[C@@H](O[C@@H]2O[C@H](CO)[C@H](O)[C@H](O[C@]3(C(=O)O)C[C@H](O)[C@@H](NC(C)=O)[C@H]([C@H](O)[C@H](O)CO)O3)[C@H]2O)[C@@H]1O; X2 = CC(=O)N[C@H]1[C@H](O[C@H]2[C@@H](O)[C@H](O)[C@@H](CO)O[C@@H]2*)O[C@H](CO)[C@@H](O[C@@H]2O[C@H](CO)[C@H](O)[C@H](O)[C@H]2O)[C@@H]1O; GlcNAc(β1-2)αMan = CC(=O)N[C@H]1[C@H](O[C@H]2[C@@H](O)[C@H](O)[C@@H](CO)O[C@@H]2*)O[C@H](CO)[C@@H](O)[C@@H]1O; Hexanoyl(5-oxo) = CC(=O)CCCC(=O)*

Chain of Laminin subunit alpha-1 (Homo sapiens) (P25391 whole entry): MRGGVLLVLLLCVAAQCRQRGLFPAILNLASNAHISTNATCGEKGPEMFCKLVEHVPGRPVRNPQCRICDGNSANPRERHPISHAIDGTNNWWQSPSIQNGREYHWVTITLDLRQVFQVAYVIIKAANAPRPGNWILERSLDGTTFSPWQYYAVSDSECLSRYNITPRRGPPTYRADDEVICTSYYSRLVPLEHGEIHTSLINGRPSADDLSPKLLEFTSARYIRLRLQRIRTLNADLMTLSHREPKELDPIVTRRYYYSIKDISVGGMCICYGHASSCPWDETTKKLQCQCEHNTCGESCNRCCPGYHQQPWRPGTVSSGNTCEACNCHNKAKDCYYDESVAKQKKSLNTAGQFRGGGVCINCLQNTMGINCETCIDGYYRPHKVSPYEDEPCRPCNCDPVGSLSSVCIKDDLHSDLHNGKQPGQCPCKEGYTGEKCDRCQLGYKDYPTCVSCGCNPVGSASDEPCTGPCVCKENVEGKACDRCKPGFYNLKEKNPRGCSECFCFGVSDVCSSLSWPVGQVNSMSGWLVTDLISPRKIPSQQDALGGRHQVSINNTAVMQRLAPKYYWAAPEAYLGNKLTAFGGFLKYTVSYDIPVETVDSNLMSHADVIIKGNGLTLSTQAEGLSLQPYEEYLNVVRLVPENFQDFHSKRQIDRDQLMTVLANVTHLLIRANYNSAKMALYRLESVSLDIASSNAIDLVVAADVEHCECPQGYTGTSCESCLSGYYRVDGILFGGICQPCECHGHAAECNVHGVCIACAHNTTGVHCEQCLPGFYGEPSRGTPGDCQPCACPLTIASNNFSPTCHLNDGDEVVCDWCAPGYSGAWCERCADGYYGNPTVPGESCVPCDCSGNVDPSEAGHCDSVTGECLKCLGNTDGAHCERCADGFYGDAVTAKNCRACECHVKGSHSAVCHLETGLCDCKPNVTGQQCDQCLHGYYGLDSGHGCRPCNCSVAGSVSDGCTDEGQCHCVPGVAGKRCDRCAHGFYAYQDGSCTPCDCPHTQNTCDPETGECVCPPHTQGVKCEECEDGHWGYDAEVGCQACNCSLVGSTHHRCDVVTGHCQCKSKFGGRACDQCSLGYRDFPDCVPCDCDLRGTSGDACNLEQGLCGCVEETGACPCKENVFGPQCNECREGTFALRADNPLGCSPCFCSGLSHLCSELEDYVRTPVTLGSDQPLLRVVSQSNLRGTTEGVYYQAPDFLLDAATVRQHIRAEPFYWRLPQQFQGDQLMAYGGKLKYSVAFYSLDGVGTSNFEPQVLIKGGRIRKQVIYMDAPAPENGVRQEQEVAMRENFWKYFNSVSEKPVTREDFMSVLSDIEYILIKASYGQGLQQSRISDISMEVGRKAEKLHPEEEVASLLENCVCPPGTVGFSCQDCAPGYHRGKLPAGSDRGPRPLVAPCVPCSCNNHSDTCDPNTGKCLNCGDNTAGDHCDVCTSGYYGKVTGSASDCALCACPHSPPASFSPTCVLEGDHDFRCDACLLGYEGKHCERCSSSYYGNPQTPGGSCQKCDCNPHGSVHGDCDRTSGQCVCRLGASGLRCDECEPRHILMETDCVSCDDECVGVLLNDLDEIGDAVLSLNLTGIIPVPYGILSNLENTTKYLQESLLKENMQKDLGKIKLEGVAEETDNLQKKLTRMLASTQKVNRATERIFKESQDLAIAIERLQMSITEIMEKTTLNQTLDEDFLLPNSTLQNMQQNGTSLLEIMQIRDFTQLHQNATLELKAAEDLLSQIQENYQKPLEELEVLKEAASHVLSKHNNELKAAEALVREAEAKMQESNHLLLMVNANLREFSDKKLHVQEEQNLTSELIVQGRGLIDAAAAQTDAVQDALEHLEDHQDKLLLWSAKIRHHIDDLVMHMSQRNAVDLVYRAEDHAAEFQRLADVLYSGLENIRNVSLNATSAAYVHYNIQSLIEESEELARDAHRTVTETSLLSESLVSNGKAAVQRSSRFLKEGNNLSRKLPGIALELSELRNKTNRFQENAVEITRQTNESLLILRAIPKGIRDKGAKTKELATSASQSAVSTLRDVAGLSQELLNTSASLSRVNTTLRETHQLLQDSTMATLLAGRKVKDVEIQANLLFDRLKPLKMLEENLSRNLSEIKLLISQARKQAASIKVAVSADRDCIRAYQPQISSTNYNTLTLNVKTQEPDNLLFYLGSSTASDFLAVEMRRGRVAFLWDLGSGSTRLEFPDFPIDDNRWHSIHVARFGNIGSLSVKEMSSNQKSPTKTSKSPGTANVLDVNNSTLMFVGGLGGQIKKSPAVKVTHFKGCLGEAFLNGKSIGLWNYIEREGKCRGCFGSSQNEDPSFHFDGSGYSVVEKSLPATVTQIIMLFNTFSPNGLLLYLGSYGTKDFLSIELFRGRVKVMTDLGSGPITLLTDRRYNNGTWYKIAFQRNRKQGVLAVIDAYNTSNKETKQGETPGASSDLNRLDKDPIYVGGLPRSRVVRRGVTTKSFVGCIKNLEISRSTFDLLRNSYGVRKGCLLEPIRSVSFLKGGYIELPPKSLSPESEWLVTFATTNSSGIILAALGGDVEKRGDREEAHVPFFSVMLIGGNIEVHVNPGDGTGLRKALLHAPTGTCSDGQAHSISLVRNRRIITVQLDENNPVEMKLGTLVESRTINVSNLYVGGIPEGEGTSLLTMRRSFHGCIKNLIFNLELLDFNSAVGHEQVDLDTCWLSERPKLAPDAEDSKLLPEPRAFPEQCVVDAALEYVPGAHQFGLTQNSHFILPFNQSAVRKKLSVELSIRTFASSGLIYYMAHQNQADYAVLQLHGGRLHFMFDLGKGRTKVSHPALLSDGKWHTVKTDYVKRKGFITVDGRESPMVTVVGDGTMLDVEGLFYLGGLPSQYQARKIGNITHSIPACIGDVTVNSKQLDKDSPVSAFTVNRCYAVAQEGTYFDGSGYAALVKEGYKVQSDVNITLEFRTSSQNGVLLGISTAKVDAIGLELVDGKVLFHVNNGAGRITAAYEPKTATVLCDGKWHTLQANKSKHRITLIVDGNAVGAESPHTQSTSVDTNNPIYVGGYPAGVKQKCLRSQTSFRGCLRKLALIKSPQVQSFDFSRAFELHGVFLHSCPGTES

For the compound `CC[C@H](C)[C@H](NC(=O)[C@H](C)NC(=O)CNC(=O)[C@H](CCCNC(=N)N)NC(=O)[C@@H](NC(=O)CCCC(C)=O)[C@@H](C)O)C(=O)N[C@H](C(=O)N[C@@H](CCC(N)=O)C(=O)N[C@H](C(=O)N1CCC[C@H]1C(=O)N[C@H](C(=O)N[C@@H](CC(C)C)C(=O)NCC(=O)N1CCC[C@H]1C(=O)N[C@H](C(=O)N[C@@H](CCC(N)=O)C(=O)N1CCC[C@H]1C(=O)N[C@H](C(=O)N[C@@H](CCCNC(=N)N)C(=O)N[C@H](C(N)=O)C(C)C)[C@@H](C)O[C@H]1O[C@H](CO)[C@@H](O)[C@H](O)[C@@H]1O[C@@H]1O[C@H](CO)[C@@H](O)[C@H](O)[C@H]1NC(C)=O)[C@@H](C)CC)[C@@H](C)O[C@H]1O[C@H](CO)[C@@H](O)[C@H](O)[C@@H]1O[C@@H]1O[C@H](CO)[C@@H](O[C@@H]2O[C@H](CO)[C@H](O)[C@H](O)[C@H]2O)[C@H](O)[C@H]1NC(C)=O)[C@@H](C)O)[C@@H](C)CC` ({Hexanoyl(5-oxo)}-TRGAIIQTPT(X2)LGPIQPT(GlcNAc(β1-2)αMan)RV-NH2), the outcome (in the assay listed under Homo sapiens [1]; with Maackia amurensis; in the assay with Datura stramonium; in assay [7]) was inactive. Moreover, the outcome (in the assay on Triticum aestivum; in assay [2]; in assay [3]; in the assay filed under Homo sapiens [4]; in assay [5]; in [6]) was Active. Moreover, the result (in assay [8]; with Arachis hypogaea; in the assay on Erythrina crista-galli; with Canavalia ensiformis) was Active.
As for `CC[C@H](C)[C@H](NC(=O)[C@H](C)NC(=O)CNC(=O)[C@H](CCCNC(=N)N)NC(=O)[C@@H](NC(=O)CCCC(C)=O)[C@@H](C)O)C(=O)N[C@H](C(=O)N[C@@H](CCC(N)=O)C(=O)N[C@H](C(=O)N1CCC[C@H]1C(=O)N[C@H](C(=O)N[C@@H](CC(C)C)C(=O)NCC(=O)N1CCC[C@H]1C(=O)N[C@H](C(=O)N[C@@H](CCC(N)=O)C(=O)N1CCC[C@H]1C(=O)N[C@H](C(=O)N[C@@H](CCCNC(=N)N)C(=O)N[C@H](C(N)=O)C(C)C)[C@@H](C)O[C@H]1O[C@H](CO)[C@@H](O)[C@H](O)[C@@H]1O[C@@H]1O[C@H](CO)[C@@H](O[C@@H]2O[C@H](CO)[C@H](O)[C@H](O)[C@H]2O)[C@H](O)[C@H]1NC(C)=O)[C@@H](C)CC)[C@@H](C)O[C@H]1O[C@H](CO)[C@@H](O)[C@H](O)[C@@H]1O[C@@H]1O[C@H](CO)[C@@H](O[C@@H]2O[C@H](CO)[C@H](O)[C@H](O)[C@H]2O)[C@H](O)[C@H]1NC(C)=O)[C@@H](C)O)[C@@H](C)CC` ({Hexanoyl(5-oxo)}-TRGAIIQTPT(X2)LGPIQPT(X2)RV-NH2), the outcome (in the assay filed under Homo sapiens [1]; in the assay with Maackia amurensis; in the assay on Datura stramonium; in assay [7]) was inactive. In addition, the outcome (in the assay with Triticum aestivum; in assay [2]; in assay [3]; in the assay listed under Homo sapiens [4]; in [5]; in assay [6]) was Active. In addition, the result (in assay [8]; in the assay with Arachis hypogaea; in the assay on Erythrina crista-galli; with Canavalia ensiformis) was Active.
In the case of `CC[C@H](C)[C@H](NC(=O)[C@H](C)NC(=O)CNC(=O)[C@H](CCCNC(=N)N)NC(=O)[C@@H](NC(=O)CCCC(C)=O)[C@@H](C)O)C(=O)N[C@H](C(=O)N[C@@H](CCC(N)=O)C(=O)N[C@H](C(=O)N1CCC[C@H]1C(=O)N[C@H](C(=O)N[C@@H](CC(C)C)C(=O)NCC(=O)N1CCC[C@H]1C(=O)N[C@H](C(=O)N[C@@H](CCC(N)=O)C(=O)N1CCC[C@H]1C(=O)N[C@H](C(=O)N[C@@H](CCCNC(=N)N)C(=O)N[C@H](C(N)=O)C(C)C)[C@@H](C)O)[C@@H](C)CC)[C@@H](C)O[C@H]1O[C@H](CO)[C@@H](O)[C@H](O)[C@@H]1O[C@@H]1O[C@H](CO)[C@@H](O[C@@H]2O[C@H](CO)[C@H](O)[C@H](O)[C@H]2O)[C@H](O)[C@H]1NC(C)=O)[C@@H](C)O)[C@@H](C)CC` ({Hexanoyl(5-oxo)}-TRGAIIQTPT(X2)LGPIQPTRV-NH2), the result (in the assay filed under Homo sapiens [1]; in the assay on Maackia amurensis; with Datura stramonium; in assay [7]) was inactive. Also, the result (with Triticum aestivum; in [2]; in assay [3]; in the assay filed under Homo sapiens [4]; in assay [5]; in [6]) was Active. Also, the result (in [8]; with Arachis hypogaea; with Erythrina crista-galli; in the assay on Canavalia ensiformis) was Active.
On to `CC[C@H](C)[C@H](NC(=O)[C@H](C)NC(=O)CNC(=O)[C@H](CCCNC(=N)N)NC(=O)[C@@H](NC(=O)CCCC(C)=O)[C@@H](C)O)C(=O)N[C@H](C(=O)N[C@@H](CCC(N)=O)C(=O)N[C@H](C(=O)N1CCC[C@H]1C(=O)N[C@H](C(=O)N[C@@H](CC(C)C)C(=O)NCC(=O)N1CCC[C@H]1C(=O)N[C@H](C(=O)N[C@@H](CCC(N)=O)C(=O)N1CCC[C@H]1C(=O)N[C@H](C(=O)N[C@@H](CCCNC(=N)N)C(=O)N[C@H](C(N)=O)C(C)C)[C@@H](C)O[C@H]1O[C@H](CO)[C@@H](O)[C@H](O)[C@@H]1O[C@@H]1O[C@H](CO)[C@@H](O)[C@H](O)[C@H]1NC(C)=O)[C@@H](C)CC)[C@@H](C)O)[C@@H](C)O)[C@@H](C)CC` ({Hexanoyl(5-oxo)}-TRGAIIQTPTLGPIQPT(GlcNAc(β1-2)αMan)RV-NH2), for which the result (in the assay listed under Homo sapiens [1]; in the assay on Maackia amurensis; with Datura stramonium; in [7]) was inactive. Moreover, the result (with Triticum aestivum; in [2]; in [3]; in the assay filed under Homo sapiens [4]; in [5]; in [6]) was Active. Moreover, the outcome (in [8]; with Arachis hypogaea; in the assay with Erythrina crista-galli; in the assay on Canavalia ensiformis) was Active.
Consider `CC[C@H](C)[C@H](NC(=O)[C@H](C)NC(=O)CNC(=O)[C@H](CCCNC(=N)N)NC(=O)[C@@H](NC(=O)CCCC(C)=O)[C@@H](C)O)C(=O)N[C@H](C(=O)N[C@@H](CCC(N)=O)C(=O)N[C@H](C(=O)N1CCC[C@H]1C(=O)N[C@H](C(=O)N[C@@H](CC(C)C)C(=O)NCC(=O)N1CCC[C@H]1C(=O)N[C@H](C(=O)N[C@@H](CCC(N)=O)C(=O)N1CCC[C@H]1C(=O)N[C@H](C(=O)N[C@@H](CCCNC(=N)N)C(=O)N[C@H](C(N)=O)C(C)C)[C@@H](C)O[C@H]1O[C@H](CO)[C@@H](O)[C@H](O)[C@@H]1O[C@@H]1O[C@H](CO)[C@@H](O[C@@H]2O[C@H](CO)[C@H](O)[C@H](O[C@]3(C(=O)O)C[C@H](O)[C@@H](NC(C)=O)[C@H]([C@H](O)[C@H](O)CO)O3)[C@H]2O)[C@H](O)[C@H]1NC(C)=O)[C@@H](C)CC)[C@@H](C)O)[C@@H](C)O)[C@@H](C)CC` ({Hexanoyl(5-oxo)}-TRGAIIQTPTLGPIQPT(X1)RV-NH2), for which the result (in the assay listed under Homo sapiens [1]; with Maackia amurensis; in the assay with Datura stramonium; in assay [7]) was inactive. The outcome (in the assay on Triticum aestivum; in assay [2]; in [3]; in the assay filed under Homo sapiens [4]; in assay [5]; in assay [6]) was Active. The outcome (in assay [8]; in the assay on Arachis hypogaea; in the assay with Erythrina crista-galli; in the assay on Canavalia ensiformis) was Active.
